The values that follow come from ChEMBL document CHEMBL1221220, “Transport and signaling via the amino acid binding site of the yeast Gap1 amino acid transceptor” (Nat Chem Biol, 2009).

Assay [1] concerns T1, General amino-acid permease GAP1 (Saccharomyces cerevisiae), P19145 [R399C].
T1 sequence (whole entry): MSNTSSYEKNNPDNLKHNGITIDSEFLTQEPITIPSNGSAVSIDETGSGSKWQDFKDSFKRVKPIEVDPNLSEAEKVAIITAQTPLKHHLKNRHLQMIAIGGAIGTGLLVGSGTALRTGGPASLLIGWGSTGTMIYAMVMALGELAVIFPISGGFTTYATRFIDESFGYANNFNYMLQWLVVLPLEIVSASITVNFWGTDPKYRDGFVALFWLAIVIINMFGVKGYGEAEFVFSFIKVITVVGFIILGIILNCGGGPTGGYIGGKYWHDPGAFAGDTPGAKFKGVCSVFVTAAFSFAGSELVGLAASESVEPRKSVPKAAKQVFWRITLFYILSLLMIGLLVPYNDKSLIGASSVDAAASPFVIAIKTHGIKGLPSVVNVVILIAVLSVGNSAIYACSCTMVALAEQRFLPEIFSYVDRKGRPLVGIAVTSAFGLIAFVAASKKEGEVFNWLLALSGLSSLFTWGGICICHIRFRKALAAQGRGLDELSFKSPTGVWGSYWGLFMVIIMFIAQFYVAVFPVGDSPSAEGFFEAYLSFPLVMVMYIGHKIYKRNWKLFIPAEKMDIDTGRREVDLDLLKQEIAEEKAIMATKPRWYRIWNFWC
The assay is described as follows: Induction of yeast Gap1 R399C mutant-mediated amino acid uptake at 2 mM in presence of 10 mM MTSEA treated before compound addition.

Assay [2] deals with T2, General amino-acid permease GAP1 (Saccharomyces cerevisiae), P19145 [N391C].
T2 sequence (whole entry): T1 sequence (whole entry) with N391C, C399R
As to the kind of experiment: Activation of yeast Gap1 N391C mutant-mediated amino acid uptake at 10 mM.

For assay [3], the system named is T3, General amino-acid permease GAP1 (Saccharomyces cerevisiae), P19145 [T400C].
T3 sequence (whole entry): T1 sequence (whole entry) with C399R, T400C
As to the kind of experiment: Induction of yeast Gap1 T400C mutant-mediated trehalose activation at 10 mM.

Assay [4] has as its system General amino-acid permease GAP1 (Saccharomyces cerevisiae), P19145 [V402C]. The assay is described as follows: Inhibition of yeast Gap1 V402C mutant-mediated trehalose activation at 10 mM.

SMILES strings stand for the structures. Numbering of substitutions follows the chain as printed. Active and inactive are the calls of the source. The rule behind the calls is not given here.

General amino-acid permease GAP1 (Saccharomyces cerevisiae), P19145 [V402C], sequence (P19145 whole entry V402C): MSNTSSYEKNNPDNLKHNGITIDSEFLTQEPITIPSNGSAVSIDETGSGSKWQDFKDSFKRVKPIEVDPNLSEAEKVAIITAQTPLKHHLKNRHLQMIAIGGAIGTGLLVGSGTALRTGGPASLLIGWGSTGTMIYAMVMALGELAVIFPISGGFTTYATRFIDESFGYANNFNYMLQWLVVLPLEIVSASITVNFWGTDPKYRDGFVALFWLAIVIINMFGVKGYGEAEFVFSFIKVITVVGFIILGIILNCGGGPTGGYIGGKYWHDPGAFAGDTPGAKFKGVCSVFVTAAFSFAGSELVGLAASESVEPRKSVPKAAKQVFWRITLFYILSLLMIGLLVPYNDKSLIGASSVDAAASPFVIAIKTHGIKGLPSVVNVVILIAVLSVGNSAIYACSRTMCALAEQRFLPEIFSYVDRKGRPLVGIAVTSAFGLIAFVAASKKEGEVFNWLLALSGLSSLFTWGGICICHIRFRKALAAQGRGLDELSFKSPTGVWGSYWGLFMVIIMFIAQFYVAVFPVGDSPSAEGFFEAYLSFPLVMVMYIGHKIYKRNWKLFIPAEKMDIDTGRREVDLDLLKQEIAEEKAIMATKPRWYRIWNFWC

For `NC(=O)NCCC[C@H](N)C(=O)O`, in assay [1], the result was Active. In addition, the result in assay [2] and in assay [3] was inactive. Besides, in assay [4], the inhibition result was “Active”.
